Data as given in patent publication US12295937B2, “Psychoactive medicines and their use for treating psychiatric and neurological conditions and disorders” (Transcend Therapeutics, Inc., priority 2021, dated 2025).

Tests used:
[1] = Rat Forced Swim Test (FST); type: in vivo; settings: for Reduction in immobility: single dose 30 min before test
From the text: The Forced Swim Test (FST) is a classic, and the most used preclinical behavioral assay to screen compounds with antidepressant-like activity and has high predictive and face validity (Porsolt et al. (1977) Nature 266:730; Borsini and Meli (1988) Psychopharmacology 94:147). The premise of the FST is that when rats are placed into a cylinder filled with water, they will initially try to escape, but over time will become immobile. This increased immobility reflects behavioral despair, modeling a depressive-like state.
Forced Swim Test (EST): In the FST trial, rats were placed in a circular plexiglass container filled with water, with no means of escape. Water temperature was maintained at 22-25° C. and changed for every animal. After an acclimation period, rats were timed for inactivity (failure to struggle), activity, swim time and climbing time. Day 1 consisted of a 15 min acclimation trial, and Day 2 (24 h later) consisted of the 5 min test. A time sampling procedure was employed where animals were observed every 5 sec and scored for immobility, swimming, or climbing. Fluoxetine (10 mg/kg, IP, Sigma Aldrich) or 0.9% sterile saline vehicle (vehicle 3× group) were administered 23.5, 5, and 1 h before testing in the FST. […] The experimenter was blinded to treatment.
Forced Swim Test: In the FST trial, rats were placed in a circular plexiglass container filled with water, with no means of escape. Water temperature was maintained at 22-25° C. and changed for every animal. After an acclimation period, rats were timed for inactivity (failure to struggle), activity, swim time and climbing time. Day 1 consisted of a 15 min acclimation trial, and Day 2 (24 h later) consisted of the 5 min test. A time sampling procedure was employed where animals were observed every 5 sec and scored for immobility, swimming, or climbing. Fluoxetine (10 mg/kg, IP, Sigma Aldrich) or 0.9% sterile saline vehicle (vehicle 3× group) were administered 23.5, 5, and 1 h before testing in the FST. 2C-B (2.5, 10, or 20 mg/kg, IP, Cayman Chemical) or 0.9% saline vehicle (vehicle 1× group) were administered 30 min prior to FST testing. The experimenter was blinded to treatment.
Drug Treatment: Fluoxetine (10 mg/kg, IP, Sigma Aldrich) or 0.9% sterile saline vehicle were administered 23.5, 5, and 1 h before testing in the FST. […] Control animals received fluoxetine alone, methylone alone, or saline vehicle.
Forced Swim Test: In the FST trial, rats were placed in a circular plexiglass container filled with water, with no means of escape. Water temperature was maintained at 22-25° C. and changed for every animal. After an acclimation period, rats were timed for inactivity (failure to struggle), activity, swim time and climbing time. The experimenter and scorer were blind to treatment group. Day 1 consisted of a 15 min acclimation trial, and Day 2 (24 h later) consisted of the 5 min test. A time sampling procedure was employed where animals were observed every 5 sec and scored for immobility, swimming, or climbing.
The FST was performed and scored by an experimenter blind to treatment group according to standard protocols and based on a “modified FST” procedure (Slattery and Cryan (2012) Nat Protoc, 7:1009). Briefly, rats were placed in a circular plexiglass container (29.2 cm diameter, 49.5 cm height) filled with water to a depth of 30 cm so rats could not support themselves by touching the bottom of the tank. Water was maintained at 22-25° C. and was changed for every animal. Day 1 (Training) consisted of a 15 min acclimation trial, and Day 2 (Testing, 24 h later) consisted of the 5 min test. A time sampling procedure was employed where animals were observed every 5 seconds for the duration of the test session (60 counts or 5 minutes) and scored for immobility (defined as the failure to struggle), swimming (defined as a circular movement around the tank), or climbing (defined as an upwards escape behavior). […]

[2] = test system: myelin basic protein (MBP); experiment: Myelin basic protein immunohistochemistry in amygdala; type: in vivo, rat; settings: 10 mg/kg IP, 24 h
Procedure: Immunohistochemistry: The in-life portion of the study was conducted at WuXi Apptec (Cranbury, NJ). Sectioning and staining of brains took place at Neuroscience Associates (NSA, Knoxville, TN). […] Brains were post-fixed in PFA before shipment to NSA for processing and staining. Hemisected brains were mounted, sectioned and stained using standard protocols with myelin-basic protein primary antibody (MBP SMI-99, 1:5000, Biolegend, San Diego, CA) and anti-mouse biotinylated secondary antibody (BA-2001, Vector Laboratories, Newark, CA). Slides were imaged using a Huron Digital Pathology TissueScope LE120 whole slide scanning system. 20× objective was used with a 0.4 μm/pixel resolution.

NET = NET (Rattus norvegicus, UniProt Q63380); experiment: [3H]NE uptake inhibition in rat brain synaptosomes; settings: read-out: Reuptake inhibition: IC50; rat brain synaptosomes
NET, sequence (Q63380 1-617): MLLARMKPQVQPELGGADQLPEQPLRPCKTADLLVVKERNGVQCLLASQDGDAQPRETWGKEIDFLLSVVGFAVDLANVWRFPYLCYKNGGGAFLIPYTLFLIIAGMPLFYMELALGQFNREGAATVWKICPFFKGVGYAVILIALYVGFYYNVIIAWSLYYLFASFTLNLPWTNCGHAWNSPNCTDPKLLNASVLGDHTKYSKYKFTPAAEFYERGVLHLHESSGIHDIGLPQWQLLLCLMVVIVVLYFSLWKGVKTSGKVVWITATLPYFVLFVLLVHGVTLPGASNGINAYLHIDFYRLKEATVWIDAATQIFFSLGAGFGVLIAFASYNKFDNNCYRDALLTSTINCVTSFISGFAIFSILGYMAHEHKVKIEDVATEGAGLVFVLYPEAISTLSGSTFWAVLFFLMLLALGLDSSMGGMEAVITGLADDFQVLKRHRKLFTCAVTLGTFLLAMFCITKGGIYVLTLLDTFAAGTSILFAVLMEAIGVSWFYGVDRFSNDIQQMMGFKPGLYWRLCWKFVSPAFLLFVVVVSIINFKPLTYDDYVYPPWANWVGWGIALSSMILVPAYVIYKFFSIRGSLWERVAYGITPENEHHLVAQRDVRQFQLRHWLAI

SMILES: CNC(C)C(=O)c1ccc2c(c1)OCO2 (stereo not drawn) [Methylone, 3,4-methylenedioxy-N-methylcathinone]
- Reduction in immobility ([1]; 15 mg/kg IP): 99%
- Antidepressant-like effect vs. vehicle ([1]; 15 mg/kg PO, 2 hours before test): significant antidepressant-like effect
- Reduction in immobility ([1]; 30 mg/kg IP): 96%
- Reduced immobility vs. vehicle ([1]; Methylone 5 mg/kg IP after three prior doses of fluoxetine 10 mg/kg): 62%
- Reduced immobility vs. vehicle ([1]; Methylone alone 5 mg/kg IP (Example 8)): 71%
- Climbing behavior ([1]; doses as worded): significantly increased climbing behavior
- Swimming behavior ([1]; doses as worded): Mid and high doses of methylone significantly increased swimming
- Climbing behavior ([1]; doses as worded, listed as methylone): Climbing was only increased at the lowest dose of methylone
- Antidepressant-like effect of multiple lower doses ([1]; four […] IP doses 20.5, 8.5, 4.5, 0.5 h before test): significant antidepressant-like effects
- Immobility vs. saline vehicle ([1]; single dose 5, 10, 15, 20 and 30 mg/kg IP, 30 min before test): significantly reduced immobility
- MBP in basolateral and central nuclei of the amygdala vs. vehicle [2]: significant reduction in MBP
- IC50 (NET): 130 nM
